Laboratory results: PubChem BioAssay (NCI)
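Where inhibition never reached the appropriate level, the endpoint shown equals the highest concentration tested. Otherwise, values were interpolated linearly from a five-concentration, 48-hour dose response in 96-well plates. Abbreviation: GI50, concentration required for 50% inhibition of growth. TGI: total growth inhibition.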

Tests used:
Assay in all cases: NCI tumour cell line growth inhibition, 48 h
K-562 leukemia = tested on: K-562 leukemia
MCF7 breast = tested on: MCF7 breast
MDA-MB-231 breast = tested on: MDA-MB-231 breast
NCI-H226 lung = tested on: NCI-H226 lung
NCI/ADR-RES ovarian = tested on: NCI/ADR-RES ovarian
RXF 393 renal = tested on: RXF 393 renal
SF-539 CNS = tested on: SF-539 CNS
SK-MEL-5 melanoma = tested on: SK-MEL-5 melanoma
SNB-19 CNS = tested on: SNB-19 CNS
T-47D breast = tested on: T-47D breast

Compound | GI50 (K-562 leukemia) | TGI (K-562 leukemia) | GI50 (MCF7 breast) | TGI (MCF7 breast) | GI50 (MDA-MB-231 breast) | TGI (MDA-MB-231 breast) | GI50 (NCI-H226 lung) | TGI (NCI-H226 lung) | GI50 (NCI/ADR-RES ovarian) | TGI (NCI/ADR-RES ovarian) | GI50 (RXF 393 renal) | TGI (RXF 393 renal) | GI50 (SF-539 CNS) | TGI (SF-539 CNS) | GI50 (SK-MEL-5 melanoma) | TGI (SK-MEL-5 melanoma) | GI50 (SNB-19 CNS) | TGI (SNB-19 CNS) | GI50 (T-47D breast) | TGI (T-47D breast)
COc1ccc(/C=C/C(=O)c2ccc(OC)c(OC)c2)cc1O | 3.31 µM | > 100 µM | 4.58 µM | 16.2 µM | 4.76 µM | 31.8 µM | 11.1 µM | 25.4 µM | 3.88 µM | 49.1 µM | 2.63 µM | 7.62 µM | 2.49 µM | 7.34 µM | 5.9 µM | 18.8 µM | 6.42 µM | 20.8 µM | 5.74 µM | 25.5 µM
OCc1c[te]c(-c2ccccc2)c1 |  | > 100 µM |  |  |  |  |  | 85.1 µM |  |  |  | > 100 µM |  | 78.3 µM |  | > 100 µM |  |  |  | 
Cc1ccc(NC(=O)/C(Cl)=C(/Cl)C(=O)O)cc1 |  | 23.5 µM |  |  |  |  |  | > 100 µM |  |  |  | 45.8 µM |  |  |  | 55.2 µM |  | > 100 µM |  | 
CC(=O)[CH-]C(=O)c1ccccc1.CC(=O)[CH-]C(=O)c1ccccc1.C[C@]12CCC(=O)C=C1CC[C@@H]1C2CC[C@@]2(C)C1CC[C@@H]2[O-].C[C@]12CCC(=O)C=C1CC[C@@H]1C2CC[C@@]2(C)C1CC[C@@H]2[O-].Cl.[Ti+4] (stereo partly specified) | 23.2 µM | > 100 µM |  |  |  |  | 12.9 µM | 35.2 µM |  |  | 16.2 µM | 31.9 µM |  |  | 11.3 µM | 32 µM |  |  |  | 
O=C1c2cccc(NCCN=Cc3ccccc3O)c2C(=O)c2c(NCCN=Cc3ccccc3O)cccc21 | 0.406 µM | 5.14 µM | 0.279 µM | 1.08 µM | 0.489 µM | 2.28 µM | 0.571 µM | 6 µM | 11.5 µM | 97.1 µM |  |  | 1.48 µM | 4.57 µM | 1.55 µM | 4.03 µM | 0.776 µM | 3.54 µM | 0.684 µM | 4.46 µM
CCCCCCCCn1ccc2cc(NC(=O)Cn3cc(CN4CCCCC4)nn3)ccc21 |  |  | 1.85 µM | 4.29 µM | 1.8 µM | 3.52 µM | 8.65 µM | 27.7 µM | 2.92 µM | 10.2 µM | 1.46 µM | 3.06 µM | 1.81 µM | 3.26 µM | 1.77 µM | 3.16 µM | 1.82 µM | 3.65 µM | 1.99 µM | 4.31 µM
COc1cc([N+](=O)[O-])c(OC)cc1-c1nc2sc(Cl)cn2c1/C=N/NC1=NCCN1 | 3.56 µM | > 100 µM | 0.431 µM | > 100 µM | 1.49 µM | 3.18 µM |  |  | > 100 µM | > 100 µM |  |  | 0.184 µM | 0.352 µM | 0.83 µM | 2.19 µM |  |  |  | 
NCCNCc1c2ccccc2c(CNCCN)c2ccccc12 |  | 36.7 µM |  |  |  |  |  |  |  |  |  | 38.6 µM |  | 29.5 µM |  | 90.3 µM |  |  |  | 
COc1ccc(C(=O)C(c2ccc(OCc3ccccc3)cc2)c2ccc(OCc3ccccc3)cc2)cc1 |  | > 100 µM |  |  |  |  |  | > 100 µM |  |  |  | > 100 µM |  | > 100 µM |  | > 100 µM |  | > 100 µM |  | 
OCCN1CCN2C=C(C3CCCC4N(CCO)CCN34)CCC21 (stereo unspecified) |  | > 61.5 µM |  |  |  |  |  | > 100 µM |  |  |  | > 85 µM |  | > 92.2 µM |  | > 100 µM |  | > 100 µM |  | 
CC(C)(C)c1c2c(c(C(C)(C)C)c3c1OCN(Cc1ccccc1)C3)OCN(Cc1ccccc1)C2 |  | 54.5 µM |  | 61.6 µM |  | 29.3 µM |  |  |  | 41 µM |  | 36.2 µM |  | 31 µM |  | 21 µM |  | 34.7 µM |  | > 100 µM
CC(=O)c1cc(C(=O)c2ccc3c(c2)Sc2ccccc2N3)c2cc(C)ccn12 | 0.041 µM | > 100 µM | 0.0345 µM | > 100 µM | 0.348 µM | > 100 µM | 3.91 µM | > 100 µM | 0.0369 µM | > 100 µM | 0.0411 µM | > 100 µM | 0.0581 µM | 0.826 µM | 0.122 µM | 5.56 µM | 0.183 µM | > 100 µM |  | 
CC1(C)[C@@H](OC(=O)CCC(=O)O)CC[C@]2(C)[C@H]3C(=O)C=C4[C@@H]5C[C@@](C)(C(=O)O)CC[C@]5(C)CC[C@@]4(C)[C@]3(C)CC[C@@H]12 | 56.2 µM | 230 µM | 54.7 µM | 136 µM | 78.8 µM | 171 µM |  |  | 81.2 µM | 146 µM | 50.5 µM | 66 µM | 53.1 µM | 76.7 µM | 56 µM | 86.8 µM | 55 µM | 141 µM |  | 
Cc1cc(C)nc(NS(=O)(=O)c2ccc(Nc3c4ccc(Cl)cc4nc4c(C(=O)NCCN(C)C)cccc34)cc2)n1 |  | > 100 µM |  |  |  |  |  | > 100 µM |  |  |  | > 100 µM |  | > 100 µM |  | > 100 µM |  | > 100 µM |  | 
COc1cc(/C=C/C(=O)N2CCN(C(=O)c3cc(OC)c(OC)c(OC)c3)CC2)ccc1OCCCOc1cc2c(cc1OC)C(=O)N1CCC[C@H]1C=N2 | 0.324 µM | > 100 µM | 0.109 µM | 0.636 µM |  |  | 0.286 µM | 1.19 µM | 11.4 µM | > 95 µM | 0.334 µM | 3.68 µM | 0.248 µM | 0.578 µM | 0.193 µM | 0.415 µM | 0.362 µM | > 40.3 µM | 0.15 µM | 0.495 µM
O=C(/C(=C\c1ccc(Cl)cc1)c1ccccc1)c1ccccc1 |  | > 100 µM |  |  |  |  |  | > 100 µM |  |  |  |  |  | > 100 µM |  |  |  |  |  | 
COc1ccc(C2C=C(c3ccc4c(c3)OCO4)Oc3c2c(=O)oc2ccccc32)cc1OC (stereo unspecified) |  |  |  | > 100 µM |  | > 100 µM |  | 9.6 µM |  | > 100 µM |  | > 45.5 µM |  | 1.81 µM |  | > 100 µM |  | > 100 µM |  | 
CC#CC1C2CCCC1(CSc1ccccc1)NC(=O)O2 (stereo unspecified) |  | > 100 µM |  |  |  |  |  | > 100 µM |  |  |  | > 100 µM |  | > 100 µM |  | > 100 µM |  | > 100 µM |  | 
c1ccc2c(c1)N=C(c1cccc3ccccc13)CC(c1ccc3c(c1)OCO3)S2 (stereo unspecified) |  | > 100 µM |  |  |  |  |  | > 100 µM |  |  |  | > 100 µM |  | > 100 µM |  | > 100 µM |  | > 100 µM |  | 
CS(=O)(=O)CC(=O)c1ccccc1 |  | > 100 µM |  | > 100 µM |  |  |  | > 100 µM |  | > 100 µM |  | > 100 µM |  | > 100 µM |  | > 100 µM |  | > 100 µM |  | > 100 µM
